Test results published in US20030121068A1, “Vector encoding suicide and marker constructs” (priority 2001, published 2003).

How the values were obtained:
[1] = Adverse effects of 5-FC injections in mice; format: in vivo, NOD/Scid mice; conditions: 400 mg/kg, day 5 through 19, control mice injected with saline
Method: In order to determine whether genetically engineered CEM cells could be effectively eradicated in vivo, NOD/Scid mice were utilized. After being exposed to 150 rads of radiation on day 1, four groups of mice were injected with saline (control) or 5×10^6 engineered cells on day 2. The remaining three groups included non-CD containing group (LNGFRSN), E. coli fusion construct containing group (LNGCDeSN) and the Saccharomyces fusion construct-containing group (LNGCDsSN). The genetically engineered cells were suspended in PBS at a 5×10^6 cells/0.5 ml and injected via the tail vein. Commencing day 5 though day 19, the mice were injected with 5-FC (Sigma, cat no. F-7129, lot no. 110K4012) at 400 mg/kg using a stock solution of 12.5 mg/ml, prepared in normal saline. After two weeks of 5-FC treatment, the mice were followed to assess mortality within each group. A Kaplan Meyer analysis was performed to determine the effect of 5-FC treatment for each group. The experiment was continued for 100 days after initiation.
As expected, control mice injected with saline survived the duration of the experiment. […] This group serves as a second control against mice injected with CD containing fusion constructs. […]

[2] = test system: NIH 3T3 and CEM cells; experiment: MTS cytotoxicity assay of transduced cells in 5-FC; format: cell-based, murine fibroblasts (NIH 3T3); human T cells (CEM); conditions: untransduced NIH 3T3 and CEM cells
Method: CD function was tested by cytotoxicity assays in which transduced cells are exposed to various concentrations of 5-FC in 96 well plates. Assays were initiated using 500 cells/well of NIH cells or 10,000 cells/well of CEM cells placed in culture with semi-log increasing concentrations of 5-FC for a period of 5 days. An MTS (Promega, Cell Titre 96; cat no. G5430, GI 11) colorimetric assay (based on the conversion of a tetrazolium dye to formazan) was utilized to quantitate the concentration of viable cells on day 5. The absorbance of UV light at a wavelength of 565 nm at a given concentration of 5-FC was used to calculate the LD50 using a μQuant plate reader (Bio Tek Instruments Inc.). The fusion constructs were tested alongside controls containing only the NGFR and the CD constructs.
We tested to determine if the CD construct remained functional in the fusion protein. Cells were incubated with varying concentrations of 5-FC in 96-well plates. After 5 days, MTS reagent was added as per manufacturers recommendations. The reaction involves a color change based on the number of viable cells as the tetrazolium dye changes to formazan. Absorption of UV light at 565 nm can then be used to assess viability (shown in FIG. 3 as percentage of viable cells). Untransduced cells are resistant to the effects of 5-FC. […]

For `Nc1nc(=O)[nH]cc1F` [5-FC, 5-fluorocytosine], the “adverse effects of 5-FC injections” value [1] was “No adverse effects” and the “effect of 5-FC on untransduced cells” value [2] was “resistant”.
